# Measured values as given in PMC3666173 (Basic research in cardiology, 2012).
# No end group written: not given here.
# How the values were obtained:
# [1] = system: pannexin-1 (Panx1) hemichannels (C6-Panx1 cells); test: High [K+]e-triggered ATP release in C6-Panx1 cells; format: cell-based; conditions: [K+]e = 143 mM, carbenoxolone 10 μM, 30 min, 10Panx1 200 μM
# [2] = biological target: Cx43 hemichannels (C6-Cx43 cells) (Homo sapiens, UniProt P17302); test: [Ca2+]i-triggered; format: cell-based
# C6-Cx43 cells = conditions: A23187 2.2 μM, 5 min; ref [19], [49]; cited from earlier work
# Sequence of Cx43 hemichannels (C6-Cx43 cells) (P17302 whole entry): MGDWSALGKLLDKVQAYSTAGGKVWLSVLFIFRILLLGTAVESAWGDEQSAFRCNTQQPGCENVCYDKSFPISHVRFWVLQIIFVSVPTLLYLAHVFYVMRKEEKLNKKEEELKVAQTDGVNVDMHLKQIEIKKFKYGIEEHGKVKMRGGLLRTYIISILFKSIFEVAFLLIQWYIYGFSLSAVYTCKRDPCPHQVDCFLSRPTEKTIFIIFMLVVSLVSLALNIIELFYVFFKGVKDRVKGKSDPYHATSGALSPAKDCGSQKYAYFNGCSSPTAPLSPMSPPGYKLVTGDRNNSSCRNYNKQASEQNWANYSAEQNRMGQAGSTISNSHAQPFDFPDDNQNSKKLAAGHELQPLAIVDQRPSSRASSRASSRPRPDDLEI
compound,measurement,setting,value
CC1(C)[C@@H](OC(=O)CCC(=O)O)CC[C@]2(C)[C@H]3C(=O)C=C4[C@@H]5C[C@@](C)(C(=O)O)CC[C@]5(C)CC[C@@]4(C)[C@]3(C)CC[C@@H]12 [carbenoxolone],high [K+]e-triggered ATP release,[1]; n = 12,suppressed
same,high [K+]e-triggered ATP release,"[1]; n = 12, listed as Cbx",blocked
YGRKKRRQRRRKQIEIKKFK,IC50,[2],~7 µM
CNc1ccc2oc(C[C@H]3O[C@@]4(CC[C@H]3C)O[C@H]([C@H](C)C(=O)c3ccc[nH]3)[C@H](C)C[C@H]4C)nc2c1C(=O)O [A23187],[Ca2+]i-triggered ATP release,"[2]; Ca2+ ionophore, 2.2 μM, 5 min, C6-Cx43 vs C6-pLTR, n = 12",triggered significant ATP release in C6-Cx43 but not in C6 cells stably transfected with the empty vector
same,transient elevation of [Ca2+]i,C6-Cx43 cells,~ 500 nM
